Measurements from ChEMBL document CHEMBL3882727, “Imidazopyridine Kinase Inhibitors” (2008).
Each block holds one compound with its values, some of them ahead of it.

Columns and labels:
[1] = target: T1, Insulin-like growth factor 1 receptor (Homo sapiens, UniProt P08069); test: Inhibition of human GST-rTEV-tagged IGF1R (957 to 1367 residues) expressed in baculovirus infected insect Sf9 cells assessed as decrease in biotin-aminohexyl-AEEEEYMMMMAKKKK-NH2 phosphorylation after 1 hr by fluorometer
Insulin receptor [2] = target: T2, Insulin receptor (Homo sapiens, UniProt P06213); test: Inhibition of human GST-rTEV-tagged insulin receptor (979 to 1382 residues) expressed in baculovirus infected insect Sf9 cells assessed as decrease in biotin-aminohexyl-AEEEEYMMMMAKKKK-NH2 phosphorylation after 1 hr by fluorometer
T2 sequence (P06213 28-758 limits assumed): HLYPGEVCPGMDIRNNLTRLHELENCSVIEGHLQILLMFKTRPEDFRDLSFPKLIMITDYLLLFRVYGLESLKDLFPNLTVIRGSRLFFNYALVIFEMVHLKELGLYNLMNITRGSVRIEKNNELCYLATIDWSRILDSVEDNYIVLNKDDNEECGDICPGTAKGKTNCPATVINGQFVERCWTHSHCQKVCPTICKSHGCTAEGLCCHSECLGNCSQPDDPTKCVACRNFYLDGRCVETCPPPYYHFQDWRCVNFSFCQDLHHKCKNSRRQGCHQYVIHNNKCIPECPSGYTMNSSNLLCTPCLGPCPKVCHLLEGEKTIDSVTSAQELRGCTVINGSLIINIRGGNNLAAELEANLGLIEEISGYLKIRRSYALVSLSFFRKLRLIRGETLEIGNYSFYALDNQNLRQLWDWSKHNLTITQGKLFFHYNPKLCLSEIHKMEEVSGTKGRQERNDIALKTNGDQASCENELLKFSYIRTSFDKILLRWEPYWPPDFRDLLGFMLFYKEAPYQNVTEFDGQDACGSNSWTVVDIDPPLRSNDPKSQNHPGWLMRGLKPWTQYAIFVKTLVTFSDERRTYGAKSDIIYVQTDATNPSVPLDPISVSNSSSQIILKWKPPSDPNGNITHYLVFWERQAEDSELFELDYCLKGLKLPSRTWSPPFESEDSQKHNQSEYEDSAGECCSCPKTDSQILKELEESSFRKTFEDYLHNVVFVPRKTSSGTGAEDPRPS
T2 sequence (P06213 763-1382 limits assumed): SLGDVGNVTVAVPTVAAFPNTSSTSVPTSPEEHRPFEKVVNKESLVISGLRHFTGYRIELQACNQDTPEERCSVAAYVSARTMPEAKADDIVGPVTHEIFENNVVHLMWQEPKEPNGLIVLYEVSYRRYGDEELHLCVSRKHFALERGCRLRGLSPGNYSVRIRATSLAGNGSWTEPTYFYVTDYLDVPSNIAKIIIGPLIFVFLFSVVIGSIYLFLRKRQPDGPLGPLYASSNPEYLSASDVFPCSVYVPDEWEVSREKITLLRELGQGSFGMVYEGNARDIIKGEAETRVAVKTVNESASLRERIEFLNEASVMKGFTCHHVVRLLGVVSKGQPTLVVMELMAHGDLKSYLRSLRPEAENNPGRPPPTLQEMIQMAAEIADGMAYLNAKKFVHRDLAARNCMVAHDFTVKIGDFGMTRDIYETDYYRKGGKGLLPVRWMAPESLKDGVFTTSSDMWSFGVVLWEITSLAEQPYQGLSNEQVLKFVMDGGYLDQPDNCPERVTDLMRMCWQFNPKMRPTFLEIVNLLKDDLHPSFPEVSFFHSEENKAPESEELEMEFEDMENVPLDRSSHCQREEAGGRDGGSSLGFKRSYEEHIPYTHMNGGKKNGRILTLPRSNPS

Insulin receptor [3] = target: T2, Insulin receptor; test: Inhibition of insulin-induced human insulin receptor autophosphorylation expressed in mouse NIH-3T3 cells preincubated for 2 hrs followed by insulin induction measured after 15 mins by DELFIA; assay type: cell-based, NIH3T3
[4] = Toxicity in nude mouse allografted with mouse LISN cells assessed as body weight loss at 30 mg/kg, qd for 21 days measured during compound dosing relative to control; assay type: organism-based; conditions: in vivo, 504 h
[5] = Toxicity in nude mouse allografted with mouse LISN cells assessed as body weight loss at 60 mg/kg, qd for 21 days measured during compound dosing relative to control; assay type: organism-based; conditions: in vivo, 504 h
[6] = Toxicity in nude mouse allografted with mouse LISN cells assessed as body weight loss at 50 to 100 mg/kg, qd for 21 days measured during compound dosing; assay type: organism-based; conditions: 504 h
[7] = Cytotoxicity against human RL cells after 3 days by InCell analyser assay; assay type: functional, cell-based; conditions: 72 h
[8] = Cytotoxicity against human GCT cells after 3 days by InCell analyser assay; assay type: functional, cell-based; conditions: 72 h
[9] = Cytotoxicity against HOS cells after 3 days by InCell analyser assay; assay type: functional, cell-based; conditions: Homo sapiens, 72 h
[10] = Cytotoxicity against human MT3 cells after 3 days by InCell analyser assay; assay type: functional, cell-based; conditions: MT-3, 72 h
[11] = Cytotoxicity against human BC3 cells after 3 days by InCell analyser assay; assay type: functional, cell-based; conditions: BC-3, 72 h
[12] = Cytotoxicity against human BC2 cells after 3 days by InCell analyser assay; assay type: functional, cell-based; conditions: BC-2, 72 h
[13] = Cytotoxicity against human SR cells after 3 days by InCell analyser assay; assay type: functional, cell-based; conditions: 72 h
[14] = Cytotoxicity against human JAR cells after 3 days by InCell analyser assay; assay type: functional, cell-based; conditions: 72 h
[15] = Cytotoxicity against human ES2 cells after 3 days by InCell analyser assay; assay type: functional, cell-based; conditions: ES-2, 72 h
[16] = Cytotoxicity against human SH4 cells after 3 days by InCell analyser assay; assay type: functional, cell-based; conditions: SH-4, 72 h
[17] = Cytotoxicity against human BC1 cells after 3 days by InCell analyser assay; assay type: functional, cell-based; conditions: BC1, 72 h
[18] = Cytotoxicity against human MC/CAR cells after 3 days by InCell analyser assay; assay type: functional, cell-based; conditions: 72 h
[19] = Cytotoxicity against human MX1 cells after 3 days by InCell analyser assay; assay type: functional, cell-based; conditions: MX1, 72 h
[20] = Cytotoxicity against human KLE cells after 3 days by InCell analyser assay; assay type: functional, cell-based; conditions: 72 h
[21] = Cytotoxicity against human NALM1 cells after 3 days by InCell analyser assay; assay type: functional, cell-based; conditions: NALM1, 72 h
[22] = Cytotoxicity against human U266B1 cells after 3 days by InCell analyser assay; assay type: functional, cell-based; conditions: U-266, 72 h
[23] = Cytotoxicity against human SCLC3 cells after 3 days by InCell analyser assay; assay type: functional, cell-based; conditions: SCLC3, 72 h
[24] = Cytotoxicity against human J82 cells after 3 days by InCell analyser assay; assay type: functional, cell-based; conditions: J82, 72 h
[25] = Cytotoxicity against human DK-MG cells after 3 days by InCell analyser assay; assay type: functional, cell-based; conditions: 72 h
[26] = Cytotoxicity against human MJ cells after 3 days by InCell analyser assay; assay type: functional, cell-based; conditions: 72 h
[27] = Cytotoxicity against human AGS cells after 3 days by InCell analyser assay; assay type: functional, cell-based; conditions: 72 h
[28] = Cytotoxicity against human A7 cells after 3 days by InCell analyser assay; assay type: functional, cell-based; conditions: 72 h
[29] = Cytotoxicity against human C3A cells after 3 days by InCell analyser assay; assay type: functional, cell-based; conditions: 72 h
[30] = Cytotoxicity against human DB cells after 3 days by InCell analyser assay; assay type: functional, cell-based; conditions: 72 h
[31] = Cytotoxicity against human M14 cells after 3 days by InCell analyser assay; assay type: functional, cell-based; conditions: M14, 72 h
[32] = Cytotoxicity against human HN5 cells after 3 days by InCell analyser assay; assay type: functional, cell-based; conditions: HN5, 72 h
[33] = Cytotoxicity against human C-4I cells after 3 days by InCell analyser assay; assay type: functional, cell-based; conditions: 72 h
[34] = Cytotoxicity against human H4 cells after 3 days by InCell analyser assay; assay type: functional, cell-based; conditions: H4, 72 h
[35] = Cytotoxicity against human 5637 cells after 3 days by InCell analyser assay; assay type: functional, cell-based; conditions: Homo sapiens, 5637, 72 h
[36] = Cytotoxicity against human CESS cells after 3 days by InCell analyser assay; assay type: functional, cell-based; conditions: 72 h
[37] = Cytotoxicity against human HT3 cells after 3 days by InCell analyser assay; assay type: functional, cell-based; conditions: HT-3, 72 h
[38] = Cytotoxicity against human T24 cells after 3 days by InCell analyser assay; assay type: functional, cell-based; conditions: T-24, 72 h
[39] = Cytotoxicity against human EM2 cells after 3 days by InCell analyser assay; assay type: functional, cell-based; conditions: EM-2, 72 h
[40] = Cytotoxicity against human ML2 cells after 3 days by InCell analyser assay; assay type: functional, cell-based; conditions: ML-2, 72 h
[41] = Cytotoxicity against human Y79 cells after 3 days by InCell analyser assay; assay type: functional, cell-based; conditions: Y79, 72 h
[42] = Cytotoxicity against human RD cells after 3 days by InCell analyser assay; assay type: functional, cell-based; conditions: 72 h
[43] = target: T1, Insulin-like growth factor 1 receptor; test: Inhibition of IGF1-induced human IGF1R autophosphorylation expressed in mouse NIH-3T3 cells preincubated for 2 hrs followed by IGF-1 induction measured after 15 mins by DELFIA; assay type: cell-based, NIH3T3
[44] = Toxicity in nude mouse allografted with mouse LISN cells assessed as body weight loss at 30 mg/kg, qd for 21 days measured during compound dosing; assay type: organism-based; conditions: in vivo, 504 h
[45] = Toxicity in nude mouse allografted with mouse LISN cells assessed as body weight loss at 15 mg/kg, bid for 21 days measured during compound dosing; assay type: organism-based; conditions: in vivo, 504 h
[46] = Toxicity in nude mouse allografted with mouse LISN cells assessed as body weight loss at 30 mg/kg, qd for every 3 days per week for 3 weeks measured during compound dosing; assay type: organism-based; conditions: in vivo
[47] = Toxicity in nude mouse xenografted with human COLO205 cells assessed as body weight loss at 100 mg/kg, qd for 21 days measured within 10 days of compound dosing relative to vehicle-treated control; assay type: organism-based, COLO 205; conditions: in vivo
[48] = Toxicity in nude mouse xenografted with human COLO205 cells assessed as body weight loss at 30 mg/kg, bid for 21 days measured within 10 days of compound dosing relative to vehicle-treated control; assay type: organism-based, COLO 205; conditions: in vivo
[49] = Antitumor activity against human COLO205 cells xenografted in nude mouse assessed as tumor growth inhibition at 10 mg/kg, qd for 21 days relative to vehicle-treated control; assay type: functional; conditions: COLO 205, 504 h, read-out: TGI
[50] = Toxicity in nude mouse xenografted with human COLO205 cells assessed as body weight loss at 10 to 30 mg/kg, bid for 21 days measured during compound dosing; assay type: organism-based, COLO 205; conditions: in vivo, 504 h
[51] = Toxicity in nude mouse xenografted with human BT474 cells assessed as body weight loss at 15 to 60 mg/kg, qd for 3 weeks without dosing on weekends measured during compound dosing; assay type: organism-based, BT-474; conditions: in vivo, 504 h
[52] = Toxicity in nude mouse xenografted with human BT474 cells assessed as body weight loss at 15 mg/kg, bid for 3 weeks without dosing on weekends measured during compound dosing; assay type: organism-based, BT-474; conditions: in vivo, 504 h
[53] = Growth inhibition of human MDA-MB-453 cells assessed as combination index in presence of lapatinib after 3 days by methylene blue staining-based assay; assay type: functional
[54] = Growth inhibition of human MDA-MB-468 cells assessed as combination index in presence of lapatinib after 3 days by methylene blue staining-based assay; assay type: functional
[55] = Growth inhibition of human MCF7 cells assessed as combination index in presence of lapatinib after 3 days by methylene blue staining-based assay; assay type: functional
[56] = Growth inhibition of human A549 cells assessed as combination index in presence of lapatinib after 3 days by methylene blue staining-based assay; assay type: functional

IC50 [1]: < 100 nM
IC50 (Insulin receptor [2]): < 100 nM
IC50 (Insulin receptor [3]): < 100 nM
Structure (SMILES): CCOc1cc(C2CCN(CCS(C)(=O)=O)CC2)ccc1Nc1nccc(-c2c(-c3ccc(OC)c(C(=O)Nc4c(F)cccc4F)c3)nc3ccccn23)n1

IC50 [1]: < 100 nM
IC50 (Insulin receptor [2]): < 100 nM
Structure (SMILES): CCOc1cc(N2CCC(CCS(C)(=O)=O)CC2)c(C)cc1Nc1nccc(-c2c(-c3ccc(OC)c(C(=O)Nc4c(F)cccc4F)c3)nc3cc(F)ccn23)n1

Structure (SMILES): CCc1cc(Nc2nccc(-c3c(-c4ccc(OC)c(C(=O)Nc5c(F)cccc5F)c4)nc4ccccn34)n2)c(OC)cc1N1CCC(N2CCN(S(C)(=O)=O)CC2)CC1
Activity [4]: Non-Toxic
Activity [5]: Non-Toxic

IC50 [1]: < 100 nM
IC50 (Insulin receptor [2]): < 100 nM
IC50 (Insulin receptor [3]): < 100 nM
Structure (SMILES): COc1cc(N2CCC(N3CCN(S(C)(=O)=O)CC3)CC2)ccc1Nc1nccc(-c2c(-c3ccc(OC)c(C(=O)Nc4c(F)cccc4F)c3)nc3ccccn23)n1

Structure (SMILES): CCOc1cc(N2CCC(CCS(C)(=O)=O)CC2)c(C)cc1Nc1nccc(-c2c(-c3ccc(OC)c(C(=O)Nc4c(F)cccc4F)c3)nc3ccccn23)n1
Activity [6]: Non-Toxic

Structure (SMILES): COc1cc(N2CCC(N3CCCCC3)CC2)ccc1Nc1nccc(-c2c(-c3cccc(C(=O)Nc4c(F)cccc4F)c3)nc3ccccn23)n1
IC50 [7]: 1000 to 5000 nM
IC50 [8]: 1000 to 5000 nM
IC50 [9]: < 1000 nM
IC50 [10]: < 1000 nM
IC50 [11]: 1000 to 5000 nM
IC50 [12]: 1000 to 5000 nM
IC50 [13]: 1000 to 5000 nM
IC50 [14]: 1000 to 5000 nM
IC50 [15]: 1000 to 5000 nM
IC50 [16]: 1000 to 5000 nM
IC50 [17]: 1000 to 5000 nM
IC50 [18]: 1000 to 5000 nM
IC50 [19]: 1000 to 5000 nM
IC50 [20]: 1000 to 5000 nM
IC50 [21]: 1000 to 5000 nM
IC50 [22]: 1000 to 5000 nM
IC50 [23]: 1000 to 5000 nM
IC50 [24]: 1000 to 5000 nM
IC50 [25]: 1000 to 5000 nM
IC50 [26]: 1000 to 5000 nM
IC50 [27]: 1000 to 5000 nM
IC50 [28]: 1000 to 5000 nM
IC50 [29]: 1000 to 5000 nM
IC50 [30]: 1000 to 5000 nM
IC50 [31]: 1000 to 5000 nM
IC50 [32]: 1000 to 5000 nM
IC50 [33]: 1000 to 5000 nM
IC50 [34]: > 5 µM
IC50 [35]: > 5 µM
IC50 [36]: > 5 µM
IC50 [37]: > 5 µM
IC50 [38]: > 5 µM
IC50 [39]: > 5 µM
IC50 [40]: > 5 µM
IC50 [41]: > 5 µM
IC50 [42]: > 5 µM

IC50 [1]: < 100 nM
IC50 (Insulin receptor [2]): < 100 nM
IC50 [43]: 100 to 500 nM
IC50 (Insulin receptor [3]): > 500 nM
Structure (SMILES): COc1cc(N2CCC(N3CCCCC3)CC2)ccc1Nc1nccc(-c2c(-c3cccc(C(=O)Nc4c(F)cccc4F)c3)nc3cc(C(F)(F)F)ccn23)n1

IC50 (Insulin receptor [2]): < 100 nM
Structure (SMILES): CN(C)CCOc1cccc(Nc2nccc(-c3c(-c4cccc(C(=O)Nc5c(F)cc(F)cc5F)c4)nc4ccccn34)n2)c1

Structure (SMILES): COc1cc(N2CCC(N3CCN(CCF)CC3)CC2)ccc1Nc1nccc(-c2c(-c3cccc(C(=O)Nc4c(F)cccc4F)c3)nc3ccccn23)n1
Activity [44]: Non-Toxic
Activity [45]: Non-Toxic
Activity [46]: Toxic
Activity [47]: > 20%
Activity [48]: > 20%
inhibition in vivo at 10 mg/kg [49]: 42%
Activity [50]: Non-Toxic
Activity [51]: Non-Toxic
Activity [52]: Non-Toxic
CI [53]: 0.31
CI [54]: 0.78 - 1.25
CI [55]: 1
CI [56]: <1

IC50 [1]: < 100 nM
IC50 (Insulin receptor [2]): < 100 nM
IC50 (Insulin receptor [3]): < 100 nM
Structure (SMILES): CCOc1cc(N2CCN(CCS(C)(=O)=O)CC2)c(C)cc1Nc1nccc(-c2c(-c3ccc(OC)c(C(=O)Nc4c(F)cccc4F)c3)nc3ccccn23)n1
